The results in this text go back to the OPERA property sets (Mansouri et al. 2018).

Settings in the first data set: not given
For `CCCCCNCCCCC`, the boiling point came to 202 °C, the log10 vapour pressure (mmHg) is -0.815 and the ready biodegradability entry is listed as “readily biodegradable”.

`CC=C[C@H](O)CCCC` returned a boiling point of 175 °C.

In the case of `BrCCCCCCCCCCBr`, the ready biodegradability result is on record as “not readily biodegradable”.

For `O=[N+]([O-])CCO`, the boiling point was 194 °C and the melting point is -80 °C.

On to `CC(C)(CO)Cc1ccccc1`, for which the melting point is 34.5 °C.

`COc1ccc2[nH]ccc2c1` yielded a melting point of 57 °C.

`O=C(O)c1cccc(Cl)c1Cl` had a log10 vapour pressure (mmHg) of -3.64 and a melting point of 169 °C.

`Cc1ccc(C(=O)c2ccc(C)cc2)cc1` showed a boiling point of 334 °C and a melting point of 96.5 °C.

Turning to `FC=C(F)Br`, the boiling point came to 19 °C.

Compound `CN(CC(=O)O)N=O` registered a melting point of 66.5 °C.

`CCc1ccc2ccccc2c1` gave a boiling point of 258 °C, a log10 Henry constant (atm·m³/mol) of -3.27, a log10 Koc (L/kg) of 3.76 and a log10 vapour pressure (mmHg) of -1.5.

`CCC(Cl)(Cl)[N+](=O)[O-]` gave a boiling point of 145 °C.

Consider `N#CCc1ccccc1`, for which the boiling point came to 234 °C, the log10 vapour pressure (mmHg) was -1.05, the melting point was -23.8 °C and the ready biodegradability result is on record as “readily biodegradable”.

`O=[N+]([O-])c1c(Cl)cccc1-c1c[nH]cc1Cl` had a melting point of 124 °C.

As for `Fc1ccc(Cl)cc1`, the boiling point turned out to be 130 °C and the melting point is -26.8 °C.

`Clc1cccc2c1Oc1ccccc1O2` registered a log10 vapour pressure (mmHg) of -4.05 and a melting point of 104 °C.

`N#Cc1c[nH]cc1-c1cccc2c1OC(F)(F)O2`: the log10 vapour pressure (mmHg) was -8.53 and the melting point stood at 200 °C.

For `O=C(Cl)c1ccccc1`, the boiling point came to 197 °C, the log10 vapour pressure (mmHg) is -0.155 and the melting point was -1 °C.

As to `COc1cc([N+](=O)[O-])ccc1N`, the melting point amounted to 141 °C and the ready biodegradability result is reported as “not readily biodegradable”.

`CCCCCCCCOC(=O)CCCCCCC` yielded a boiling point of 307 °C and a melting point of -18.1 °C.

As to `CCN1C(=O)OC(C)(C)C1=O`, the melting point amounted to 76.5 °C.

`CSCCl` registered a boiling point of 105 °C.

In turn, `O=S(=O)(Cl)c1c(F)c(F)c(F)c(F)c1F` had a boiling point of 210 °C.

On to `N=C(N)S(=O)O`, for which the ready biodegradability entry is reported as “readily biodegradable”.

For the compound `O=C(Nc1ccc(Oc2ccc(Cl)cc2)c(Cl)c1)c1cc(I)cc(I)c1O`, the melting point was determined as 169 °C.

The compound `CC(=O)C(C)=O` showed a boiling point of 88 °C, a log10 Henry constant (atm·m³/mol) of -4.88, a log10 vapour pressure (mmHg) of 1.75 and a melting point of -1.2 °C.

`CC1CN(C)CCN1C` (centres undefined) returned a boiling point of 150 °C.

`NC[C@H]1O[C@H](O[C@H]2[C@H](O[C@@H]3O[C@H](CO)[C@@H](O)[C@H]3O)C(O)[C@H](N)C[C@@H]2N)[C@H](N)[C@@H](O)[C@@H]1O` (some centres undefined) came in with a melting point of 194 °C.

Compound `[O-][N+](=Nc1ccccc1)c1ccccc1` had a log10 Koc (L/kg) of 3.5 and a melting point of 36 °C.

For `Oc1ccc(Cl)cc1O`, the melting point was 90.5 °C and the ready biodegradability entry is reported as “not readily biodegradable”.

As to `Clc1nnc(Cl)c2ccccc12`, the ready biodegradability entry was “not readily biodegradable”.

Turning to `COP(=O)(NC(C)=O)SC` (centres undefined), the log10 Koc (L/kg) was 0.3, the log10 vapour pressure (mmHg) is -5.77, the melting point is 88 °C and the ready biodegradability entry is reported as “readily biodegradable”.

`CCCc1cccc(CCC)c1O` gave a boiling point of 256 °C and a melting point of 27 °C.

Consider `Nn1cnnc1`, for which the melting point was 82.5 °C.

Take `CCC(Nc1ncnc(C)c1Cl)c1ccc(OC(F)F)cc1` (centres undefined): the log10 vapour pressure (mmHg) was -5.62 and the melting point was 47.3 °C.

`CC(=O)c1cccc(C(C)=O)c1`: the melting point was determined as 32 °C.

`CC[C@H](C(N)=O)[C@@H](C)CC` registered a melting point of 114 °C.

Compound `Cc1ccno1` yielded a boiling point of 122 °C.

`CC(C)C1CC=C(C=O)CC1` (centres undefined) showed a boiling point of 223 °C.

`Oc1ccc(F)c(F)c1F` displayed a melting point of 32 °C.

In the case of `Clc1c(Cl)c(Cl)c2c(Cl)c(Cl)c(Cl)c(Cl)c2c1Cl`, the log10 Koa came out at 11.1, the log10 Koc (L/kg) turned out to be 5.89, the log10 vapour pressure (mmHg) was -7.96 and the melting point is 198 °C.

The compound `O=C1C(=O)c2ccccc2-c2ccccc21` came in with a boiling point of 360 °C and a melting point of 209 °C.

Regarding `Oc1cc(Cl)cc(Br)c1`, the boiling point came out at 256 °C and the melting point worked out at 70 °C.

With `NS(=O)(=O)c1ccc(S(=O)(=O)CCCCO)cc1`, the melting point was 134 °C.

In turn, `N#Cc1ccc(N)c2ccccc12` came in with a melting point of 176 °C.

As for `CCOC(=O)/C=C\C(=O)OCC`, the boiling point was found to be 218 °C, the log10 vapour pressure (mmHg) is -0.979 and the melting point was -3.65 °C.

With `O=S(=O)(O)C(F)(F)F`, the boiling point amounted to 166 °C and the log10 vapour pressure (mmHg) is -1.

The compound `C1CCNCC1` showed a boiling point of 106 °C, a log10 Henry constant (atm·m³/mol) of -5.35, a log10 Koa of 4.04 and a log10 vapour pressure (mmHg) of 1.51. Moreover, the melting point was -7 °C and the ready biodegradability entry is reported as “readily biodegradable”.

Compound `CCc1ccncc1` had a boiling point of 168 °C, a log10 Henry constant (atm·m³/mol) of -5.07, a log10 vapour pressure (mmHg) of 0.355 and a melting point of -90.5 °C.

The compound `FC=C(F)F` displayed a boiling point of -51 °C.

The compound `CCOC(=O)C1(S(=O)(=O)c2ccc(C)cc2)CC1` gave a melting point of 75.5 °C.

Turning to `O=[N+]([O-])c1cc(C(F)(F)F)c(Cl)c([N+](=O)[O-])c1Nc1ncc(C(F)(F)F)cc1Cl`, the melting point came to 113 °C.

Compound `CCC(C)(CC)c1ccccc1` registered a boiling point of 205 °C.

Compound `Cc1cc(N(C)C)ccc1N=Nc1ccccc1` gave a melting point of 68 °C.

Take `CNC(=C[N+](=O)[O-])NCCSCc1csc(CN(C)C)n1`: the melting point was 131 °C.

The compound `CCCCOC(=O)OCCCC` showed a boiling point of 170 °C.

Turning to `c1cncc(-c2cccnc2)c1`, the boiling point stood at 292 °C and the melting point was determined as 68 °C.

Consider `COc1cc([C@@H]2c3cc4c(cc3C(O[C@@H]3O[C@@H]5CO[C@@H](C)O[C@H]5[C@H](O)[C@H]3O)C3COC(=O)[C@@H]32)OCO4)cc(OC)c1O` (some centres undefined), for which the melting point was determined as 244 °C.

Regarding `CC1CCCNC1=O` (centres undefined), the boiling point came to 250 °C and the melting point worked out at 55.3 °C.

Consider `CCCCCCCCCCCCOC(=O)c1ccc(N)cc1`, for which the melting point came to 82 °C.

`CC(=O)N=c1sc(S(N)(=O)=O)nn1C` registered a melting point of 214 °C.

`CN1CCC(O)CC1` registered a boiling point of 200 °C and a melting point of 29 °C.

Compound `CCC=CCC(=O)OCC` returned a boiling point of 166 °C.

Turning to `Cc1cccc(N2CC(CO)OC2=O)c1` (centres undefined), the melting point was found to be 76 °C.

For `CN1CCOCC1`, the boiling point stood at 116 °C.

For `CC=C(C)C=CC=C(C)C`, the melting point was -28 °C.

As for `COC(=O)c1ccc(O)c(N)c1`, the melting point came out at 143 °C.

Regarding `CCC(C)C(=O)C(C)CC` (centres undefined), the boiling point turned out to be 162 °C.

For the compound `CCCCCc1ccc(O)cc1O`, the melting point came out at 72.5 °C.

As for `CCC(C)CS` (centres undefined), the boiling point stood at 116 °C and the log10 vapour pressure (mmHg) is 1.3.

`CCCCCCCCCCCCCCCCCC(=O)OC1CCCCC1` had a melting point of 44 °C.

The compound `c1csc(-c2cccs2)c1` came in with a boiling point of 260 °C and a melting point of 33 °C.

`O=C(Br)c1ccccc1` displayed a boiling point of 218 °C, a log10 vapour pressure (mmHg) of -0.654 and a melting point of -24 °C.

For `CCCCCCCCCCCCCCCCCCOC(=O)CCc1cc(C(C)(C)C)c(O)c(C(C)(C)C)c1`, the ready biodegradability entry was “not readily biodegradable”.

As to `Oc1cc(O)c2ccccc2c1`, the melting point is 124 °C.

With `S=C=NC1CCCCC1`, the boiling point turned out to be 220 °C.

The same data set, now with this note: fish.
`Clc1c(Cl)c(Cl)c2c(Cl)c(Cl)c(Cl)c(Cl)c2c1Cl` showed a log10 BCF of 2.58 and a log10 biotransformation half-life (days) of 1.62.
